These results are taken from patent US20240360146A1, “BRUTON'S TYROSINE KINASE AND MUTANT DEGRADER, COMPOSITION AND APPLICATION THEREOF” (HANGZHOU HEALZEN THERAPEUTICS CO., LTD., priority 2021, published 2024).

T1 sequence (Q06187 whole entry): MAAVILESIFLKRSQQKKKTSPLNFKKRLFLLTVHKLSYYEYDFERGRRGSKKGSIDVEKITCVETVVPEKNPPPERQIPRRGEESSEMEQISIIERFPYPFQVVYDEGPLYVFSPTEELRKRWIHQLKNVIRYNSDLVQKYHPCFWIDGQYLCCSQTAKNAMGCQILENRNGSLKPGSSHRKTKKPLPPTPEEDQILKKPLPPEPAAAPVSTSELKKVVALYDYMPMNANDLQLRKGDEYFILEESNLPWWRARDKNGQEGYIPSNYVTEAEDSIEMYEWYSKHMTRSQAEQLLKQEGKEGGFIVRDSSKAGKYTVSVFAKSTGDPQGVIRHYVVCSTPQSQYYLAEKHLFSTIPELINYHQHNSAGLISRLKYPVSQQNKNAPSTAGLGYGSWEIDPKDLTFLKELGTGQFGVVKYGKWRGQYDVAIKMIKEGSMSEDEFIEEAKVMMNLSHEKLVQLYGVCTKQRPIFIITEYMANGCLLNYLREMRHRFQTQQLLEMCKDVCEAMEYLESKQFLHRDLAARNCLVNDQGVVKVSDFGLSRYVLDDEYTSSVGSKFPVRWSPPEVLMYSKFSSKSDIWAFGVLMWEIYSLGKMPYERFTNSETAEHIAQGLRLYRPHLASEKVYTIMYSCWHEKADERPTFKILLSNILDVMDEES

The experiment concerns the target T1, BTK (Homo sapiens, UniProt Q06187).
T1 construct: endogenous in cells; host or cells: Mino cells
Kind of experiment: BTK degradation activity test in Mino cells. As to conditions: 16 h incubation, Western blot or Elisa. It is filed as cell-based. In a few lines:
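DC50 derived by curve fitting of BTK degradation rates versus untreated control across compound concentrations. Mino cells were exposed for 16 h; BTK levels in lysates, normalised via BCA protein, measured by Western blot or ELISA.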
Compound `CN1CCN(C2CCCN(c3nnc(C(N)=O)c(Nc4ccc(C5CCN(CC6CCN(c7ccc8c(c7)n(C)c(=O)n8C7CCC(=O)NC7=O)CC6)CC5)cc4)n3)C2)C1=O` (stereo not shown) [Compound 088, 5-((4-(1-((1-(1-(2,6-dioxopiperidin-3-yl)-3-methyl-2-oxo-2,3-dihydro-1H-benzo[d]imidazol-5-yl)piperidin-4-yl)methyl)piperidin-4-yl)phenyl)amino)-3-(3-(3-methyl-2-oxoimidazolin-1-yl)piperidin-1-yl)-1,2,4-triazin-6-carboxamide] returned a half-maximal degradation concentration (DC50) of less than 1 nM.

Regarding `NC(=O)c1ncc(N2CCCC(N3CC4CCCCN4C3=O)C2)nc1Nc1ccc(C2CCN(CC3CCN(c4ccc5c(c4)C(=O)N(C4CCC(=O)NC4=O)C5=O)C3)CC2)cc1` (stereo not shown) [Compound 045, 3-((4-(1-((1-(2-(2,6-dioxopiperidin-3-yl)-1,3-dioxoisoindolin-5-yl)pyrrolidin-3-yl)methyl)piperidin-4-yl)phenyl)amino)-5-(3-(3-oxohexahydroimidazo[1,5-a]pyridin-2(3H)-yl)piperidin-1-yl)pyrazin-2-carboxamide], the half-maximal degradation concentration (DC50) is less than 1 nM.

For the compound `CN1CCN([C@@H]2CCCN(c3nnc(C(N)=O)c(Nc4ccc(N5CCN(CC6CCN(c7ccc8c(C9CCC(=O)NC9=O)nn(C)c8c7)C6)CC5)c(F)c4)n3)C2)C1=O` (stereo partly drawn) [Compound 212, 5-((4-(4-((1-(3-(2,6-dioxopiperidin-3-yl)-1-methyl-1H-indazol-6-yl)pyrrolidin-3-yl)methyl)piperazin-1-yl)-3-fluorophenyl)amino)-3-((R)-3-(3-methyl-2-oxoimidazolidin-1-yl)piperidin-1-yl)-1,2,4-triazin-6-carboxamide], the DC50 was less than 1 nM.

With `CN1CCN(C2CCCN(c3ncc(C(N)=O)c(Nc4ccc(C5(C)CCN(CC6CCN(c7ccc8c(c7)C(=O)N(C7CCC(=O)NC7=O)C8=O)C6)CC5)cc4)n3)C2)C1=O` (stereo not shown) [Compound 036, 4-((4-(1-((1-(2-(2,6-dioxopiperidin-3-yl)-1,3-dioxoisoindolin-5-yl)pyrrolidin-3-yl)methyl)-4-methylpiperidin-4-yl)phenyl)amino)-2-(3-(3-methyl-2-oxoimidazolin-1-yl)piperidin-1-yl)pyrimidin-5-carboxamide], the 50% degradation concentration (DC50) is less than 1 nM.

`CN1CCN(C2CC3CC2N(c2nnc(C(N)=O)c(Nc4ccc5c(c4)CCN(C4CN(c6ccc7c(c6)C(=O)N(C6CCC(=O)NC6=O)C7=O)C4)C5)n2)C3)C1=O` (stereo not shown) [Compound 106, 5-((2-(1-(2-(2,6-dioxopiperidin-3-yl)-1,3-dioxoisoindol-5-yl)azetidine-3-yl)-1,2,3,4-tetrahydroisoquinolin-6-yl)amino)-3-(6-(3-methyl-2-oxoimidazolin-1-yl)-2-azabicyclo[2.2.1]heptan-2-yl)-1,2,4-triazin-6-carboxamide] registered a 50% degradation concentration (DC50) of less than 1 nM.

Take `CC1(c2ccc(Nc3nc(N4CCCC(N5CCN(C6CCCC6)C5=O)C4)cnc3C(N)=O)cc2)CCN(C2CN(c3ccc(NC4CCC(=O)NC4=O)cn3)C2)CC1` (stereo not shown) [Compound 021]: the DC50 was less than 1 nM.

As to `NC(=O)c1ncc(N2CCCC(N3CCN(C4COC4)C3=O)C2)nc1Nc1ccc(N2CCC3(CC2)CCN(c2ccc4c(c2)C(=O)N(C2CCC(=O)NC2=O)C4=O)CC3)cc1` (stereo not shown) [Compound 017, 3-((4-(9-(2-(2,6-dioxopiperidin-3-yl)-1,3-dioxoisoindol-5-yl)-3,9-diazaspirocyclo[5.5]undec-3-yl)phenyl)amino)-5-(3-(3-(oxetan-3-yl)-2-oxoimidazolin-1-yl)piperidin-1-yl)pyrazin-2-carboxamide], the DC50 is less than 1 nM.

In turn, `CN1CCN([C@@H]2CCCN(c3nnc(C(N)=O)c(Nc4ccc(N5CCN(CC6CCN(c7cccc8c(C9CCC(=O)NC9=O)nn(C)c78)CC6)CC5)c(F)c4)n3)C2)C1=O` (stereo partly drawn) [Compound 217, 5-((4-(4-((1-(3-(2,6-dioxopiperidin-3-yl)-1-methyl-H-indazol-7-yl)piperidin-4-yl)methyl)piperazin-1-yl)-3-fluorophenyl)amino)-3-((R)-3-(3-methyl-2-oxoimidazolidin-1-yl)piperidin-1-yl)-1,2,4-triazin-6-carboxamide] had a DC50 of less than 1 nM.

`CN1C(=O)N(C2CCCN(c3cnc(C(N)=O)c(Nc4ccc(C5(C)CCN(C6CN(c7ccc8c(c7)C(=O)N(C7CCC(=O)NC7=O)C8=O)C6)CC5)cc4)n3)C2)CC12CC2` (stereo not shown) [Compound 010, 3-((4-(1-(1-(2-(2,6-dioxopiperidin-3-yl)-1,3-dioxoisoindol-5-yl)azetidin-3-yl)-4-methylpiperidin-4-yl)phenyl)amino)-5-(3-(4-methyl-5-oxo-4,6-diazaspirocyclo[2.4]heptan-6-yl)piperidin-1-yl)pyrazin-2-carboxamide] returned a 50% degradation concentration (DC50) of more than 1 nM.

`CN1CCN([C@@H]2CCCN(c3nnc(C(N)=O)c(Nc4ccc(N5CCN(CC6CCN(c7ccc8c9c([nH]c8c7)C(=O)N(C7CCC(=O)NC7=O)C9)C6)CC5)c(F)c4)n3)C2)C1=O` (stereo partly drawn) [Compound 220, 5-((4-(4-((1-(2-(2,6-dioxopiperidin-3-yl)-3-oxo-1,2,3,4-tetrahydropyrrolo[3,4-b]indol-6-yl)pyrrolidin-3-yl)methyl)piperazin-1-yl)-3-fluorophenyl)amino)-3-((R)-3-(3-methyl-2-oxoimidazolidin-1-yl)piperidin-1-yl)-1,2,4-triazin-6-carboxamide] displayed a DC50 of less than 1 nM.

For the compound `CN1C(=O)N(C2CCCN(c3nnc(C(N)=O)c(Nc4ccc(C5CCN(CC6CCN(c7ccc8c(c7)C(=O)N(C7CCC(=O)NC7=O)C8=O)CC6)CC5)cc4)n3)C2)CC12CCC2` (stereo not shown) [Compound 069, 5-((4-(1-((1-(2-(2,6-dioxopiperidin-3-yl)-1,3-dioxoisoindol-5-yl)piperidin-4-yl)methyl)piperidin-4-yl)phenyl)amino)-3-(3-(5-methyl-6-oxo-5,7-diazaspirocyclo[3.4]octan-7-yl)piperidin-1-yl)-1,2,4-triazin-6-carboxamide], the DC50 was less than 1 nM.

`CC1(c2ccc(Nc3nc(N4CCCC(N5CCN(c6ccccc6)C5=O)C4)nnc3C(N)=O)cc2)CCN(C2CN(c3ccc4c(c3)C(=O)N(C3CCC(=O)NC3=O)C4=O)C2)CC1` (stereo not shown) [Compound 092, 5-((4-(1-(1-(2-(2,6-dioxopiperidin-3-yl)-1,3-dioxoisoindol-5-yl)azetidine-3-yl)-4-methylpiperidin-4-yl)phenyl)amino)-3-(3-(2-oxo-3-phenylimidazolin-1-yl)piperidin-1-yl)-1,2,4-triazin-6-carboxamide] came in with a DC50 of more than 1 nM.

In the case of `Cn1c(=O)n(C2CCCN(c3cnc(C(N)=O)c(Nc4ccc(C5(C)CCN(C6CN(c7ccc8c(c7)C(=O)N(C7CCC(=O)NC7=O)C8=O)C6)CC5)cc4)n3)C2)c2ccccc21` (stereo not shown) [Compound 025, 3-((4-(1-(1-(2-(2,6-dioxopiperidin-3-yl)-1,3-dioxoisoindol-5-yl)azetidin-3-yl)-4-methylpiperidin-4-yl)phenyl)amino)-5-(3-(3-methyl-2-oxo-2,3-dihydro-1H-benzo[d]imidazol-1-yl)piperidin-1-yl)pyrazin-2-carboxamide], the half-maximal degradation concentration (DC50) is less than 1 nM.

`NC(=O)c1ncc(N2CCCC(N3CCN(C4CCCC4)C3=O)C2)nc1Nc1ccc(C2CCN(C3CN(c4ccc5c(c4)C(=O)N(C4CCC(=O)NC4=O)C5=O)C3)CC2)cc1` (stereo not shown) [Compound 027, 5-(3-(3-cyclopentyl-2-oxyimidazolin-1-yl)piperidin-1-yl)-3-((4-(1-(1-(2-(2,6-dioxopiperidin-3-yl)-1,3-dioxoisoindol-5-yl)azetidin-3-yl)piperidin-4-yl)phenyl)amino) pyrazin-2-carboxamide] gave a 50% degradation concentration (DC50) of more than 1 nM.

For `CN1CCN([C@@H]2CCCN(c3nnc(C(N)=O)c(Nc4ccc(N5CCN(CC6CCN(c7ccc(N8CCC(=O)NC8=O)c(C(N)=O)c7)CC6)CC5)c(F)c4)n3)C2)C1=O` [Compound 233, (R)-5-((4-(4-((1-(3-carbamoyl-4-(2,4-dioxotetrahydropyrimidin-1(2H)-yl)phenyl)piperidin-4-yl)methyl)piperazin-1-yl)-3-fluorophenyl)amino)-3-(3-(3-methyl-2-oxoimidazolidin-1-yl)piperidin-1-yl)-1,2,4-triazin-6-carboxamide], the half-maximal degradation concentration (DC50) is less than 1 nM.

`CN1CCN([C@@H]2CCCN(c3nnc(C(N)=O)c(Nc4ccc(N5CCN(CC6CCN(c7cccc8c(C9CCC(=O)NC9=O)nn(C)c78)C6)CC5)c(F)c4)n3)C2)C1=O` (stereo partly drawn) [Compound 216, 5-((4-(4-((1-(3-(2,6-dioxopiperidin-3-yl)-1-methyl-1H-indazol-7-yl)pyrrolidin-3-yl)methyl)piperazin-1-yl)-3-fluorophenyl)amino)-3-((R)-3-(3-methyl-2-oxoimidazolidin-1-yl)piperidin-1-yl)-1,2,4-triazin-6-carboxamide]: the 50% degradation concentration (DC50) is less than 1 nM.

As for `Cn1c(=O)n(C2CCC(=O)NC2=O)c2cccc(N3CC(N4CCC(C)(c5ccc(Nc6nc(N7CCCC(N8CCN(C9CCCC9)C8=O)C7)cnc6C(N)=O)cc5)CC4)C3)c21` (stereo not shown) [Compound 022], the DC50 was less than 1 nM.

Turning to `NC(=O)c1ncc(N2CCCC(N3CCN(C4CCCC4)C3=O)C2)nc1Nc1ccc(C2CCN(CC3CCN(c4ccc5c(c4)C(=O)N(C4CCC(=O)NC4=O)C5=O)C3)CC2)cc1` (stereo not shown) [Compound 039, 5-(3-(3-cyclopentyl-2-oxoimidazolin-1-yl)piperidin-1-yl)-3-((4-(1-((1-(2-(2,6-dioxopiperidin-3-yl)-1,3-dioxoisoindolin-5-yl)pyrrolidin-3-yl)methyl)piperidin-4-yl)phenyl)amino)pyrazin-2-carboxamide], the DC50 was less than 1 nM.

The compound `CN1CCN([C@@H]2CCCN(c3nnc(C(N)=O)c(Nc4ccc(C5CCN(CC6CCN(c7ccc(N8CCC(=O)NC8=O)cc7)CC6)CC5)c(CO)c4)n3)C2)C1=O` [Compound 240, (R)-5-((4-(1-((1-(4-(2,4-dioxotetrahydropyrimidin-1(2H)-yl)phenyl)piperidin-4-yl)methyl)piperidin-4-yl)-3-(hydroxymethyl)phenyl)amino)-3-(3-(3-methyl-2-oxoimidazolidin-1-yl)piperidin-1-yl)-1,2,4-triazin-6-carboxamide] came in with a DC50 of less than 1 nM.
